Reference: patent US20020098520A1, “Cell tests and diagnostic index for alzheimer's disease” (priority 1993, published 2002)
“Also recorded” adds a separate entry of the source.

What was measured:
[1] = tested on: human skin fibroblasts (AD, AC, YC); type: cell-based
113 pS K^+ channel = assay: Patch-clamp, cell-free patches: channel sensitivity to blockers; type: cell-based, human; conditions: 50 mM Ba^2+, inside-out patches, n=4
Protocol: (§1) Patch-clamp experiments were performed at room temperature (21-23° C.), following standard procedures set forth in Sakmann, B. and Neher, E. (1983) Single Channels Recordings (Plenum New York) and Kukuljan, M., et al. (1991) J. Membrane Biol. 119:187. Before recordings, […] culture medium was replaced with the following solution: 150 mM NaCl, 5 mM KCl, 2 mM CaCl2, 1 MM MgCl2, 10 mM HEPES […] pH=7.4. Pipettes were made from Blue Tip capillary tubes (I.D. 1.1-1.2 mm) using a BB-CH Mecanex puller, and then filled with a high potassium solution of 140 mM KCl, 2 mM CaCl2, 1 mM MgCl2, 10 mM HEPES (NaOH), pH=7.4. Pipette resistances were approximately 6 MΩ. Records were obtained using an Axopatch-1C amplifier (dc-10 kHz), stored on tape (Toshiba PCM-video recorder), and later transferred to a personal computer using an Axolab interface. Only recordings lasting for at least 3 minutes were considered for final analysis. The pClamp suite of programs was used for single-channel data acquisition and analysis. Amplifier, interface and software were obtained from Axon Instruments (Foster City, Calif.).

166 pS K^+ channel = assay: as above; type: cell-based, human; conditions: 50 mM Ba^2+, inside-out patches, n=4
Protocol: as §1

Cp20 = Cp20 immunoblot of AC fibroblasts treated with β-amyloid; type: cell-based, human; conditions: 10 nM β-amyloid for 48 h, 9 AC cell lines
Protocol: (§2) Cell lines and procedures for cell culture. Human skin fibroblasts were grown to confluence in 75 cc growing surface culture flasks (Falcon) containing Dulbecco's modified Eagle's medium (DMEM, Gibco), supplemented with 10% fetal calf serum (Gibco). […]
Protein assay, immunoblotting, and total protein analyses procedures. Protein concentration was determined following an established dye-binding protein assay (R. D. Lane et al. J. Immunol Methods 92:261 (1986) for all homogenates. For immunoblots, a SDS-PAGE 4-20% gradient, […] gel was used (Novex, San Diego, Calif.). Sample volume was adjusted to give a protein concentration of 1 μg/μl. Novex sample buffer (16 μl) was added to 16 μl of sample, the solution was heated to 85° C. for 2 min, loaded into the gel and subjected to […] for ≈1.5 h. The Rainbow™ molecular weight standard (Amersham) was also loaded. The resolved proteins were electrophoretically transferred (51.2 mA for 2 h) to a unmodified 8 by 8 cm nitrocellulose paper (Pierce). […]

[2] = tested on: proteins in the 20 kD region; assay: Total protein analysis (SDS-PAGE, Coomassie blue) of β-amyloid treated AC fibroblasts; type: cell-based, human; conditions: 10 nM β-amyloid for 48 h, AC cell lines
Protocol: as §2
Protein assay, immunoblotting, and total protein analyses procedures. Protein concentration was determined following an established dye-binding protein assay (R. D. Lane et al. J. Immunol Methods 92:261 (1986) for all homogenates. For immunoblots, a SDS-PAGE 4-20% gradient, […] gel was used (Novex, San Diego, Calif.). Sample volume was adjusted to give a protein concentration of 1 μg/μl. Novex sample buffer (16 μl) was added to 16 μl of sample, the solution was heated to 85° C. for 2 min, loaded into the gel and subjected to […] for ≈1.5 h. The Rainbow™ molecular weight standard (Amersham) was also loaded. The resolved proteins were electrophoretically transferred (51.2 mA for 2 h) to a unmodified 8 by 8 cm nitrocellulose paper (Pierce). […] Immunoblots were then digitized on a flat bed scanner and analyzed with imaging software written in the laboratory (TN Image by T. J. Nelson) for quantitative analysis. […] MW was determined by comparison with Mark12™ standards (Novex). […]

113 pS K+ channel = conditions: low β-amyloid concentration (10 nM), cited from earlier work

**Q.** Which “response to high potassium when agent is added before stimulation” value (from here on “response to high potassium”) [1] does the source give for `[Cl][Cd][Cl]` [CdCl2] here?
**A.** No responses were observed

**Q.** With `[Cl][Ni][Cl]` [NiCl2] as the compound, how does the “response to high potassium” value [1] read?
**A.** No responses were observed

**Q.** For `[Cl-].[K+]` [KCl, potassium chloride], which “return of [Ca^2+]i to basal levels” value ([1]; 50 mM KCl) is on record?
**A.** 100 s

**Q.** What about the “[Ca^2+]i elevation” value ([1]; 50 mM KCl, all three groups (AD, AC, YC)) of the same compound?
**A.** at least 100%

**Q.** For `[Cl][La]([Cl])[Cl]` [LaCl3], which “response to high potassium” value [1] is on record?
**A.** No responses were observed

**Q.** For `[Cl-].[Cl-].[Co+2]` [CoCl2], which “response to high potassium” value [1] is on record?
**A.** No responses were observed

**Q.** For `O=C(O)CN(CCOCCOCCN(CC(=O)O)CC(=O)O)CC(=O)O` [EGTA], which “response to high potassium” value [1] is on record?
**A.** No responses were observed

**Q.** What does the source list for `[Ba+2]` [Ba^2+]?
**A.** sensitivity of the 113 pS channel to Ba^2+ (113 pS K^+ channel): sensitive; sensitivity of the 166 pS channel to Ba^2+ (166 pS K^+ channel): sensitive

**Q.** For β-amyloid 1-40 peptide, which “Cp20 level in treated cells compared to non-treated counterparts” value (Cp20) is on record?
**A.** significantly reduced; also recorded: reduction of Cp20; also recorded: induced the Alzheimer's disease phenotypes for Cp20

**Q.** What about the “effect on total protein profile / proteins in the 20 kD region” value [2] of the same compound?
**A.** not a generalized effect on all proteins in the 20 kD region; also recorded: revealed no differences

**Q.** And the “effect on the 113 pS K+ channel / K+ function” value (113 pS K+ channel; control cells)?
**A.** specific AD-like effects; also recorded: induces an AD-like K+ dysfunction

**Q.** What about the “effect on basal levels of intracellular Ca^2+” value (113 pS K+ channel) of the same compound?
**A.** without altering basal levels
